In ChEMBL document CHEMBL1201862, “PubChem BioAssay data set” (2004):
Calls of active or inactive are those of the source.

Assays:
Escherichia coli = experiment: microbe, parasite or virus in culture
[1] = target: Glucose-6-phosphate 1-dehydrogenase (Homo sapiens, UniProt P11413); experiment: human G6PD enzyme inhibitors, dose response, selectivity assay for P. falciparum G6PD inhibitor project, biochemical, fluorescence (AID 504792); type: functional
[2] = HEp-2 cell cytotoxicity, dose response, cytotoxicity control for RSV inhibitor project, HTS (AID 2410); type: functional; details: human respiratory syncytial virus
[3] = target: T1, High affinity choline transporter 1 (Homo sapiens, UniProt Q9GZV3); experiment: CHT inhibitors, dose response, cell-based, 5-point CRC, membrane potential dye (AID 504840); type: functional
T1 sequence (Q9GZV3 whole entry): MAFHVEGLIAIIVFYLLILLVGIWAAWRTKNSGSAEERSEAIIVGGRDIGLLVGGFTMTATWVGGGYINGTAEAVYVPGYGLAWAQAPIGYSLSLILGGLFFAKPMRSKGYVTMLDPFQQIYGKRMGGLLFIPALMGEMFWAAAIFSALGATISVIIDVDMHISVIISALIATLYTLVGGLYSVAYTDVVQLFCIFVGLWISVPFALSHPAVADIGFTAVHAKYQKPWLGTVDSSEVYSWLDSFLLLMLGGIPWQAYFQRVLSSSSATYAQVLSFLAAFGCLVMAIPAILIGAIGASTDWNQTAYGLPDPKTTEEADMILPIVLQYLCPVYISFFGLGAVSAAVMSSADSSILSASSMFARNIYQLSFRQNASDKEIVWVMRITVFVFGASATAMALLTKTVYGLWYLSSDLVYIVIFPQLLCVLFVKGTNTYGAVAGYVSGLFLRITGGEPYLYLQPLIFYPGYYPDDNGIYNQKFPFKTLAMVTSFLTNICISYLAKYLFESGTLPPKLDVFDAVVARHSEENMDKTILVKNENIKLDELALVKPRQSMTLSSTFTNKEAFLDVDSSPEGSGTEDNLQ

[4] = target: T2, Polyadenylate-binding protein 1 (Homo sapiens, UniProt P11940); experiment: PABP1 MLLE–PAM2 binding inhibitor potency, dose response, biochemical, fluorescence polarization, FITC-PAM2 peptide (AID 602259); type: functional; details: read-out: IC50_Mean
[5] = target: T2, Polyadenylate-binding protein 1; experiment: PABP1 MLLE–PAM2 interaction inhibitors, dose response, miRNA deadenylation inhibitor project, biochemical, fluorescence polarization, Cy5-PAM2 peptide, secondary (AID 602260); type: functional; details: read-out: IC50_Mean
[6] = HepG2 cell cytotoxicity, dose response, cytotoxicity control, plate reader, cherry-pick, antagonist series (AID 743416); type: functional, cell-based
[7] = LGR2 antagonists, dose response, cell-based, HEK293, CRE-luciferase reporter, cherry pick, set 2 (AID 743343); type: functional;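 also: transfected cells were stimulated with diluted bursicon conditioned medium after compound addition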
[8] = MC4R antagonists, dose response, counter-screen for LGR2 antagonist project, cell-based, plate reader, cherry pick (AID 743444); type: functional;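 also: transfected HEK 293 cells stimulated with alpha-MSH peptide; potency of inhibitors of the alpha-MSH evoked signal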
Vero = experiment: cells; type: functional, cell-based; details: Chlorocebus sabaeus
[9] = off-target signal loss in HeLa-CEM21 co-culture – HeLa F-luc CTL cells, cherry-picked, counter-screen for HIV-1 Env fusion inhibitor project, dose response (AID 652040); type: functional, cell-based;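 also: potency for signal decrease marking cytotoxic or nonspecific inhibition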
[10] = inhibitors of clade B AD8 Env fusion, dose response, cell-based, cherry-pick (AID 652062); type: functional;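 also: luciferase signal from cell-cell fusion driven by HIV-1 clade B AD8 Env; potency is for inhibitors of fusion seen as a drop in luminescence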
[11] = CEM21 lymphoblast cell cytotoxicity, dose response, cytotoxicity control for viral fusion inhibitor project, CellTiter-Glo luminescence, cherry-picked (AID 652042); type: functional, cell-based;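 also: potency for signal decrease meaning cytotoxicity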

Glucose-6-phosphate 1-dehydrogenase, sequence (P11413 whole entry): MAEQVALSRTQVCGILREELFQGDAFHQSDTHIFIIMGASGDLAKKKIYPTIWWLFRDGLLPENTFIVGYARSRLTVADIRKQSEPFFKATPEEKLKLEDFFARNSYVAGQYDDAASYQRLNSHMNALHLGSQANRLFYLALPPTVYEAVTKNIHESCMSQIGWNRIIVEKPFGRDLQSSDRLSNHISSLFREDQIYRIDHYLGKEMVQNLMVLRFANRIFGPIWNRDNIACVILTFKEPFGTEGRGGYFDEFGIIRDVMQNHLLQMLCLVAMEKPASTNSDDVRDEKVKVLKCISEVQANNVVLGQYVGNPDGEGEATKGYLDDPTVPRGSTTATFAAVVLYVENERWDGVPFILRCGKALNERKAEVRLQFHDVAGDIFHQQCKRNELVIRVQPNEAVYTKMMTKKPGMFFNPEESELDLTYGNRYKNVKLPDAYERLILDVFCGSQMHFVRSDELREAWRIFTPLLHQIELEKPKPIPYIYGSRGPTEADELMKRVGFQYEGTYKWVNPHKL
T2 sequence (P11940 whole entry): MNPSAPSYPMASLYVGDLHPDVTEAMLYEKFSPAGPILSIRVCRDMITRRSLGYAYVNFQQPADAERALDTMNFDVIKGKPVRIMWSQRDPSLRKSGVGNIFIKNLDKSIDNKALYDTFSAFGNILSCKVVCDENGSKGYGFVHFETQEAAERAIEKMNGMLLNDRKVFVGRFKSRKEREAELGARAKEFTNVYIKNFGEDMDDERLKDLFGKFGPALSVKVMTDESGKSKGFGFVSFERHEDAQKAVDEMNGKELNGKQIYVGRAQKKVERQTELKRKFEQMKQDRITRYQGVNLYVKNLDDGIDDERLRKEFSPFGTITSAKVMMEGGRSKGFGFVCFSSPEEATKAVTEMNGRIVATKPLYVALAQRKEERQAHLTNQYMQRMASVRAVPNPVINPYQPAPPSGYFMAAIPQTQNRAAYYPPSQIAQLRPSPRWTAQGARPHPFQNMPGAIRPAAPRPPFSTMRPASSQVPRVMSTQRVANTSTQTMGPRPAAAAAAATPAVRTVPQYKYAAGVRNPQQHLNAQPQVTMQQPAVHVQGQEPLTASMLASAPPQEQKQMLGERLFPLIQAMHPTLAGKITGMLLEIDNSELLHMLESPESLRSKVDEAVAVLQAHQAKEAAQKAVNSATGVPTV

## Cc1nn(Cc2ccccc2Cl)c(C)c1NC(=O)c1ccn(C)n1
Escherichia coli
  AC50: 19.1 µM (active)

## Cc1ccc(NC(=O)c2cc(C)n(-c3ccccc3)c2C)cc1
[1]
  IC50: > 80 µM (inactive)
[2]
  CC50: 16.9 µM (active)

## O=C(NC1CCCCC1)C(c1ccc2ncccc2c1)N(Cc1ccc2c(c1)OCO2)C(=O)c1cccs1 (stereo unspecified)
[3]
  IC50: 16.5 µM (active)

## COc1cccc(CNC(=O)c2cc3oc4ccccc4c3n2C)c1OC
cells
  IC50: 4.72 µM (active)
[2]
  CC50: 11.7 µM (active)

## CC(=O)NS(=O)(=O)c1ccc(NC(=O)c2cc(-c3cccs3)nc3ccccc23)cc1
Escherichia coli
  AC50: 36.4 µM (active)

## N=C(N)NC(=S)Nc1ccc(Cl)cc1
[4]
  IC50: > 66 µM (inactive)
[5]
  IC50: > 66 µM (inactive)

## CCNC(=O)c1ccc(NS(=O)(=O)c2ccccc2)cc1
Escherichia coli
  AC50: 27.4 µM (active)

## CCC(=O)Nc1cc2nn(-c3ccc(OC)cc3)nc2cc1C
[6]
  AC50: > 52 µM (inactive)
[7]
  AC50: 3.64 µM (active)
[8]
  AC50: 2.52 µM (active)

## COC(=O)C1=C(C)N(Cc2ccccc2)C(=O)N[C@H]1c1ccc(Br)cc1
cells
  IC50: 4.43 µM (active)

## Cc1ccc(C(=O)N/C(=C/c2ccco2)C(=O)Nc2cccc(C)c2)cc1
[3]
  IC50: 13.7 µM (active)

## Cc1ccc(-c2nn(-c3ccccc3)cc2C2CC(c3cccs3)=NN2C(=O)CCCC(=O)O)cc1 (stereo unspecified)
cells
  IC50: 36.9 µM (active)
[2]
  CC50: > 50 µM (active)

## CC(=O)Nc1nnc(SCC(=O)c2ccc3c(c2)Cc2ccccc2-3)s1
Vero
  IC50: 10.9 µM (active)
cells
  IC50: 36 µM (active)
[2]
  CC50: 45.6 µM (active)

## CC(C)(C)C(=O)Nc1sc(-c2ccccc2)cc1C(=O)O
Vero
  IC50: 24.1 µM (active)
cells
  IC50: 14.3 µM (active)
[2]
  CC50: 17.9 µM (active)

## COC(=O)CCC(=O)OC1(C)C(=O)C2=CN(c3ccc(OC)cc3)C(c3ccc(OC)cc3)=CC2=C(Br)C1=O (stereo unspecified)
[1]
  IC50: 30.1 µM (inactive)

## COc1ccccc1S(=O)(=O)Cc1ccc(C(=O)N2CCN(c3cccc(Cl)c3)CC2)o1
[9]
  AC50: > 70 µM (inactive)
[10]
  AC50: 43 µM (active)
[11]
  AC50: 17.1 µM (active)

## O=C(COC(=O)CCCSc1nc2ccccc2[nH]1)NC(=O)NC1CCCC1
[3]
  IC50: 7.24 µM (active)

## CC1=C(C(=O)O)N2C(=O)C(NC(=O)c3ccn(C)n3)C2SC1 (stereo unspecified)
[4]
  IC50: > 66 µM (inactive)
[5]
  IC50: > 66 µM (inactive)

## Cc1ccc(C(=O)NCC(=O)NCC(=O)OCC(=O)c2ccc([N+](=O)[O-])cc2)cc1
[1]
  IC50: > 80 µM (inactive)
